Assay results from patent US20220380430A1, “Non-Transgenic Functional Rescue of Neuropeptides” (Worcester Polytechnic Institute, priority 2021, published 2022).
No end group written: not given here.

Tests used:
NPR-10B = target: T1, NPR-10B (Caenorhabditis elegans, UniProt Q6EUU1); assay: In vitro GPCR activation assay (CHO-K1 cells, aequorin, human Gα16), NPR-10B; format: cell-based, C. elegans; conditions: in words
T1 sequence (Q6EUU1 1-362): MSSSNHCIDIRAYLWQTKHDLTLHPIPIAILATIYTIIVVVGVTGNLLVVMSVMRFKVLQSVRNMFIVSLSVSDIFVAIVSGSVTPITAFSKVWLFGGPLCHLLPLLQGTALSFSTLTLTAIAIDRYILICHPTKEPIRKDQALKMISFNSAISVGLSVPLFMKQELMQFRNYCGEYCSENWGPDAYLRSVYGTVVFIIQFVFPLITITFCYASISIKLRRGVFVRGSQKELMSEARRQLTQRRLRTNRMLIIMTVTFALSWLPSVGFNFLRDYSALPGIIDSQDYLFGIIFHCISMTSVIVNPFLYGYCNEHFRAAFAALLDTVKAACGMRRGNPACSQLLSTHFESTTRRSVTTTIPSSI
Protocol: (§1) Using Chinese hamster ovarian (CHO) cell cultures stably expressing the promiscuous G protein, Gα16, and the calcium reporter, aequorin, it was observed that both isoforms of NPR-10 are activated by seven of the ten FLP-3 peptides, with half-maximal effective concentrations (EC50) in the nM range (FIG. 14A-FIG. 14H, Table V). […] This peptide contains an R-to-K mutation within the C-terminal motif, which may explain the lack of receptor activation.
(§2) The GPCR activation assay was performed as previously described Van Sinay, E. et al. Proc. Natl Acad. Sci. USA 114, E4065-e4074 (2017) and Peymen, K. et al. PLoS Genet. 15, e1007945 (2019). Briefly, npr-10 and frpr-16 cDNAs were cloned into the pcDNA3.1 TOPO expression vector (Thermo Fisher Scientific). A CHO-K1 cell line (PerkinElmer, ES-000-A24) stably expressing apo-aequorin targeted to the mitochondria (mtAEQ) and human Gα16 was transiently transfected with the receptor cDNA construct or the empty pcDNA3.1 vector using Lipofectamine LTX and Plus reagent (Thermo Fisher Scientific). Cells were shifted to 28° C. one day later and allowed to incubate for 24 h. On the day of the assay, cells were collected in BSA medium (DMEM/Ham's F12 with 15 mM HEPES, without phenol red, 0.1% BSA) and loaded with […] coelenterazine h (Thermo Fisher Scientific) for 4 h at room temperature. The incubated cells were then added to synthetic peptides dissolved in DMEM/BSA, and luminescence was measured for 30 s at […] using a Mithras LB940 (Berthold Technologies) or MicroBeta LumiJet luminometer (PerkinElmer). After 30 s of readout, 0.1% triton X-100 was added to lyse the cells, resulting in a maximal calcium response that was measured for 10 s. After initial screening, concentration-response curves were constructed for HPLC-purified FLP-3 peptides by subjecting the transfected cells to each peptide in a concentration range from 1 pM to 10 μM. Cells transfected with an empty vector were used as a negative control. Assays were performed in triplicate on at least two independent days. Concentration-response curves were fitted using Prism v. 7 (nonlinear regression analysis with a sigmoidal concentration-response equation).

NPR-10A = assay: In vitro GPCR activation assay (CHO-K1 cells, aequorin, human Gα16), NPR-10A; format: cell-based, C. elegans; conditions: in words
Protocol: as §1
The GPCR activation assay was performed as previously described Van Sinay, E. et al. Proc. Natl Acad. Sci. USA 114, E4065-e4074 (2017) and Peymen, K. et al. PLoS Genet. 15, e1007945 (2019). Briefly, npr-10 and frpr-16 cDNAs were cloned into the pcDNA3.1 TOPO expression vector (Thermo Fisher Scientific). A CHO-K1 cell line (PerkinElmer, ES-000-A24) stably expressing apo-aequorin targeted to the mitochondria (mtAEQ) and human Gα16 was transiently transfected with the receptor cDNA construct or the empty pcDNA3.1 vector using Lipofectamine LTX and Plus reagent (Thermo Fisher Scientific). […] The incubated cells were then added to synthetic peptides dissolved in DMEM/BSA, and luminescence was measured for 30 s at […] using a Mithras LB940 (Berthold Technologies) or MicroBeta LumiJet luminometer (PerkinElmer). After 30 s of readout, 0.1% triton X-100 was added to lyse the cells, resulting in a maximal calcium response that was measured for 10 s. […]

FRPR-16 = target: T2, FRPR-16 (Caenorhabditis elegans, UniProt Q21957); assay: In vitro GPCR activation assay (CHO-K1 cells, aequorin, human Gα16), FRPR-16; format: cell-based, C. elegans; conditions: calcium/aequorin luminescence in transfected CHO-K1 cells
T2 sequence (Q21957 1-340): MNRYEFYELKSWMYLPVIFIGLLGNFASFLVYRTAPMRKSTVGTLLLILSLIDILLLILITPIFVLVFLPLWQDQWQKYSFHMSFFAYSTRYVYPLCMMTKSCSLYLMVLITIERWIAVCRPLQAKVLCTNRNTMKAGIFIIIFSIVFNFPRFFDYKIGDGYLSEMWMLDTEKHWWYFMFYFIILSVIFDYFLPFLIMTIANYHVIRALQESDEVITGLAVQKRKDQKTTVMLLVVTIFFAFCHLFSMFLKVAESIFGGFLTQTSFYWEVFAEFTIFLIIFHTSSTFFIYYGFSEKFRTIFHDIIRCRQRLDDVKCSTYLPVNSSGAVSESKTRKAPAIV
Protocol: as §2

C. elegans [1] = assay: Single worm attraction assay (SWAA) of ascarosides; format: in vivo; conditions: for dwell time in cue vs vehicle: 1 μM, in words
Protocol: The spot retention assay was adapted to allow for better characterization of individual worm behavior and robust interrogation of attraction to small molecules. The attractiveness of 1 μM ascr #8 (FIG. 11A) were compared across multiple strains of C. elegans (the wild-type N2 strain, the high incidence of male him-5 and him-8 strains, and the chemosensory cilia defective osm-3), using the novel behavioral assay, the single worm attraction assay (SWAA) (FIG. 11A). In this assay, individual animals were placed directly into the spot of the ascaroside cue (A) while simultaneously removing any potential of male-male contact. […] Likewise, a vehicle control (V) is also included, to account of any changes in dwell time that are driven by the components of the vehicle. The outer forty wells of a 48-well suspension culture plate (Olympus Plastics, Cat #: 25-103) were seeded with 200 μL of standard NGM agar. To prepare the plates for the assay, they were acclimated to room temperature, at which point each well was seeded with 65 μL of OP50 E. coli. The assay plates were then transferred to a 37° C. incubator with the lid tilted for 4 h to allow the bacterial culture to dry on the agar. Once the bacterial culture dried, the lid was replaced the plate was stored at 20° C. until used in the assay. Fifty to sixty L4 worms were segregated by sex and stored at 20° C. for 5 h to overnight to be assayed as young adults. 0.8 μL of either vehicle control or ascaroside #8 was placed in the center of the well corresponding to that condition within the quadrant being tested, following a random block design (FIG. 11A). A single worm was placed in each of the 10 wells to be assayed, and the plate was transferred to a light source and camera and recorded for 15 m. […] Raw dwell time values were calculated by subtracting the time a worm exited the cue (center of the well in spatial controls), from the time it entered, as in the SRA. This was determined per visit, and the average dwell time was calculated for each animal in the quadrant. Averages of the four-quadrant means were determined per plate, and a minimum of five plates were assayed per strain/condition. The mean raw dwell time across five plates was calculated and used for statistical analyses and graphical display. […] An “attractive visit” was first determined for each plate as any visit greater than two standard deviations above the mean dwell time within the vehicle control for that plate. Any individual visit meeting this threshold was scored as a “1”, and any below was scored a “0”. The percent visits per-worm that were attractive was determined, and the average of each quadrant taken. […] The average percent of attractive visits across five plates was calculated and used for statistical analyses and graphical display.

C. elegans [2] = assay: Drop avoidance assay of ascr #8; format: in vivo; conditions: in words
Protocol: Because the defect in male response to ascr #8 was significant, and the SWAA was designed to detect attractive behaviors, it was sought to determine if flp-3 loss-of-function (lof) animals were in fact avoiding ascr #8. Using a previously described drop avoidance assay, forward moving animals were exposed to a drop of either vehicle control or ascr #8 and scored the avoidance index. […] The hermaphroditic behavior was unaffected by the loss of flp-3. (FIG. 12F).
Assays were performed as described previously in Chute, C. D. & Srinivasan, J. Semin. Cell Dev. Biol. 33, 18-24 (2014); Chute, C. D. et al. Nat. Commun. 10, 3186 (2019); and Hilliard, M. A. et al., EMBO J. 23, 1101-1111 (2004). Fifty to sixty L4 worms were segregated by sex and stored at 20° C. for 5 h to overnight to be assayed as young adults. One to four hours prior to the assay, the lids of unseeded plates were tilted to allow any excess moisture to evaporate off the plates. At the time of the assay, 10 or more animals were transferred onto each of the dried, unseeded plates. A drop of either water or 1 μM ascr #8 was placed on the tail of forward moving animals, and their response was scored as either an avoidance response, or no response. The total number of avoidances was divided by the total number of drops to generate an avoidance index for that plate. This was repeated for at least 10 plates over at least three different days.

activation of NPR-10 (NPR-10B) (NPR-10B)	EC50 (FRPR-16)	Molecule	activation of NPR-10A (NPR-10A)	dwell time in cue vs vehicle (C. elegans [1]; hermaphrodites, all strains)	dwell time in cue vs vehicle (C. elegans [1]; males, wild-type and him strains)	attractive visits to the cue (C. elegans [1]; males, 1 μM ascr #8)	avoidance of the cue (C. elegans [2]; hermaphrodites)	avoidance of the cue (C. elegans [2]; wild-type males, 1 μM ascr #8)
did not activate	1.6 µM	SADDSAPFGTMRF-NH2 [FLP-3-8, SADDSAPFGTMRFamide]	did not activate					
		C[C@H](CC/C=C/C(=O)Nc1ccc(C(=O)O)cc1)O[C@@H]1O[C@@H](C)[C@H](O)C[C@H]1O [ascr #8]		significantly less time in ascr #8 than the vehicle	significant increase in the amount of time spent within ascr #8 spot compared to the vehicle control	30-45%	avoid	did not avoid the cue
